US8410075B2, “Mannich base N-oxide drugs” (Cascade Prodrug Inc., priority 2007, dated 2013)

Tests used:
[1] = Rearrangement of Mannich base N-oxides to O-substituted hydroxylamine isomers in solution (NMR); type: physicochemical; conditions: for conversion to rearranged product 20: chloroform solution at RT for 72 h
Description: Examples 5-14 describe the synthesis of several Mannich bases (structures B and structures G in Chart 1) and the corresponding Mannich base N-oxides (structures C and H). In cases where R═H in structure A, the synthesis of the rearranged N-oxide isomer D is also described. […] However, when R═H in A, the Mannich base N-oxide C (R═H) undergoes rearrangement over time to the corresponding isomer D. Rearrangement tends to be very slow (several days) in aqueous solution but more rapid (a few hours) in CDCl3 and depends to some extent on which secondary amine was used to prepare the Mannich base. In one case, the hydrochloride salt (structure E) of a Mannich base N-oxide C where R═H was prepared. Mannich base N-oxide salt E was stable toward rearrangement.
N-(Dimethyl-N′-oxido-aminomethyl)-benzamide (13) and N-(Dimethyl-aminooxymethyl)-benzamide (14). Mannich base 12 (0.18 g, 0.001 mol) was dissolved in dichloromethane (5 mL) and then solid MCPBA (0.26 g, 0.0015 mol) was added to the stirred solution in an ice/water bath. After stirring for 20 min as the solution warmed to RT, the solvent was evaporated. The residue was chromatographed on a Chromatotron with dichloromethane/methanol as eluent. Evaporation of the eluent in the cold is accompanied by rearrangement, giving 150 mg (66%) of the mixture Mannich base N-oxide 13 (Rf˜0.2 in dichloromethane/methanol, 5:1) and the rearranged benzamide derivative 14 (Rf˜0.8 in dichloromethane/methanol, 5:1). A sample of the mixture was allowed to stand in CDCl3 at RT while it was monitored by ^1H NMR.
N-(Piperidin-1-oxido-1-yl-methyl)-benzamide (16) and N-(Piperidin-1-yloxymethyl)-benzamide (17). Mannich base 15 (0.2 g, 0.92 mmol) was dissolved in 2 mL of dichloromethane and then the solution was added to a stirred solution of MCPBA (0.24 g, 1. 14 mmol) in 2 mL of dichloromethane in an ice/water bath. After 5 min of stirring at RT, the solvent was evaporated and the residue was chromatographed on a Chromatotron with dichloromethane/methanol mixture, 5:1 to 5:3 as eluent. The desired fractions were combined and the solvents were evaporated to give Mannich base N-oxide 16 (0.15 g, 72% yield). […] The ^1H and ^13C NMR spectra of 17 are consistent with the assigned structure. […] It was difficult to get clean NMR spectra of 16 in any solvent.
N-(Morpholin-4-oxido-4-ylmethyl)-benzamide (19) and N-(Morpholin-4-oxido-4-ylmethyl)-benzamide Hydrochloride (21) and N-(Morpholin-4-yloxymethyl)-benzamide (20). Mannich base 18 (0.283 g, 1.3 mmol) was dissolved in dichloromethane (6 mL) and the solution was cooled in an ice/water bath. To this stirred solution MCPBA (0.3 g, 1.7 mmol) was added as a solid. After 10 min the reaction mixture was divided in half. The first half was evaporated and chromatographed on a Chromatotron with dichloromethane/methanol 5:0.5 to 5:2 as eluent giving mostly rearranged product 20 (0.1 g, 67%). […] The ^1H and ^13C NMR spectra of 20 were consistent with the assigned structure. APCI MS (m/z): Calcd. for 20, C12H17N2O3 (M+1) 236.1; Found 236.1 A sample of 20 was recrystallized from EtOAc/hexanes giving crystals that were subject to x-ray analysis.
The second half of the MCPBA oxidation solution was extracted with 1N HCl. The water layer was evaporated to dryness and then the residue was treated with dichloromethane and re-evaporated to give the N-oxide HCl salt 21 (0.11 g, 73%) as a waxy solid which was stable in CDCl3 solution for several days. The ^1H NMR spectra were consistent with the assigned structure. […] A sample of 21 was recrystallized from MeOH/Et2O giving crystals that were subject to x-ray analysis. APCI MS (m/z APCI MS (m/z): Calcd. 21 C12H17N2O3 (M+1) 236.1; Found 236.1.

[2] = Hydrolysis of Mannich bases; type: physicochemical
Protocol: We observed that indole-derived Mannich bases 30, 32 and 34, unlike the other Mannich bases herein described, were quite stable toward hydrolysis. For example, only 30% of Mannich base 34 was hydrolyzed after 80 h in D2O.

[3] = Stability of Mannich base N-oxides in D2O monitored by 1H NMR; type: physicochemical; conditions: for at least several days
Protocol: The mixture of 3 and 4 was rechromatographed on a Chromatotron with 5:3:0.3 dichloromethane/methanol/ammonia as eluent to give 200 mg (22%) of the N^3 isomer 3 (faster moving isomer on TLC) which was pure by TLC, ^1H and ^19F NMR spectroscopy. The ^1H and ^19F NMR spectra of 3 (D2O) were consistent with the assigned structure. APCI MS (m/e): Calcd. for C9H12FN3O4 (M+H), 246.0; found (M+H) 246.0. Continued elution gave 140 mg (15% yield) of the N^1 isomer 4 (slower moving spot on TLC), which was pure by TLC, ^1H and ^19F NMR spectroscopy. APCI MS (m/e): Calcd. for C9H12FN3O4 (M+H), 246.0; found (M+H) 246.0. N-oxides 3, 4, and 5 were stable in D2O for at least several days as monitored by ^1H NMR spectroscopy. The structures of Mannich base N-oxides 3 and 4 were confirmed by single crystal x-ray analysis. Example 6

[4] = Reduction of 5-FU-derived Mannich base N-oxides with triphenylphosphine in CDCl3 and hydrolysis to 5-fluorouracil (1H and 19F NMR); type: physicochemical; conditions: mixture of N-oxides 3 and 4, 2 equiv triphenylphosphine in CDCl3 at RT, 70-h time period
Protocol: Triphenylphosphine is known to reduce N-oxides to the corresponding amines See Gallos, J. K. and Argyropoulos, N. G. Synthesis 1:83-86 (1991). A mixture of N-oxides 3 and 4 was dissolved in CDCl3 and then treated with 2 equiv of triphenylphosphine in CDCl3 at RT and monitored by ^1H and ^19F NMR spectroscopy. According to the ^1H and ^19F NMR spectra, the N-oxides underwent reduction and spontaneous hydrolysis to 5-fluorouracil to the extent of about 90% over a 70-h time period. Thus, not only are the N-oxide groups reduced back to the corresponding Mannich bases, but also the Mannich bases undergo hydrolysis back to 5-FU in the presence of adventitious water.

[5] = observed by Sloan et al.; could not be isolated as a stable molecule; cited from earlier work

Compound: N-(Dimethyl-N′-oxido-aminomethyl)-benzamide [Mannich base N-oxide 13]
- conversion to the rearranged product ([1]; CDCl3 at RT, over several hours, 1H NMR): Essentially complete conversion

Compound: O=C(NC[N+]1([O-])CCOCC1)c1ccccc1 [Mannich base N-oxide 19, N-(Morpholin-4-oxido-4-ylmethyl)-benzamide]
- conversion to rearranged product 20 [1]: clean conversion

Compound: O=C(NC[N+]1([O-])CCCCC1)c1ccccc1 [Mannich base N-oxide 16, N-(Piperidin-1-oxido-1-yl-methyl)-benzamide]
- rearranged product 17 in 1H NMR spectrum ([1]; D2O): 10-20%
- onset of rearrangement of 16 to 17 ([1]; after adding CDCl3): starts immediately

Compound: CN(C)Cn1ccc2ccccc21 [Mannich base 32, N-(Dimethylaminomethyl)-indole]
- stability toward hydrolysis [2]: quite stable

Compound: O=c1[nH]c(=O)n(C[N+]2([O-])CCOCC2)cc1F [Mannich base N-oxide 4, 5-fluoro-1-(4-oxido-morpholin-4-yl-methyl)-1H-pyrimidine-2,4-dione]
- stability in D2O [3]: stable
- extent of reduction and spontaneous hydrolysis to 5-fluorouracil [4]: about 90%

Compound: O=c1c(F)cn(CN2CCOCC2)c(=O)n1CN1CCOCC1 [Mannich base 2, 5-Fluoro-1,3-bis-morpholin-4-ylmethyl-1H-pyrimidine-2,4-dione]
- stability toward hydrolysis [2]: extreme sensitivity

Compound: O=c1c(F)cn(C[N+]2([O-])CCOCC2)c(=O)n1C[N+]1([O-])CCOCC1 [Mannich base N-oxide 5, 5-fluoro-1,3-bis-(4-oxido-morpholin-4-yl-methyl)-1H-pyrimidine-2,4-dione]
- stability in D2O [3]: stable

Compound: CN(C)Cn1cc(F)c(=O)n(CN(C)C)c1=O [Mannich base 6, 1,3-Bis-dimethylaminomethyl-5-fluoro-1H-pyrimidine-2,4-dione]
- sensitivity toward hydrolysis [5]: very sensitive

Compound: Cl.O=C(NC[N+]1([O-])CCOCC1)c1ccccc1 [N-oxide HCl salt 21, N-(Morpholin-4-oxido-4-ylmethyl)-benzamide Hydrochloride]
- stability in CDCl3 solution ([1]; CDCl3 solution, several days): stable
- conversion to rearranged product 20 [1]: no rearranged product 20 was formed

Compound: O=c1[nH]cc(F)c(=O)n1C[N+]1([O-])CCOCC1 [Mannich base N-oxide 3, 5-Fluoro-3-(4-oxido-morpholin-4-yl-methyl)-1H-pyrimidine-2,4-dione]
- stability in D2O [3]: stable
- extent of reduction and spontaneous hydrolysis to 5-fluorouracil [4]: about 90%
